Measurements as given in patent US20190119348A1, “PARATHYROID HORMONE RECEPTOR 1 ANTAGONIST AND INVERSE AGONIST POLYPEPTIDES AND METHODS OF THEIR USE” (The General Hospital Corporation, priority 2016, published 2019).
Where a SMILES comes first, the peptide text is derived from it. [ ]: non-standard residue; d: D form. Nle = CCCC[C@H](N)C(=O)O

Columns and labels:
PTHR1 = biological target: T1, PTHR1 (Homo sapiens, UniProt Q03431); test: Antagonism of PTH(1-34)-induced cAMP response (GloSensor) in GP-2.3 cells; assay type: cell-based
T1 construct: expressed in transfected cells; host or cells: GP-2.3 (HEK-293 stably transfected with hPTHR1 and GloSensor)
T1 sequence (Q03431 27-593): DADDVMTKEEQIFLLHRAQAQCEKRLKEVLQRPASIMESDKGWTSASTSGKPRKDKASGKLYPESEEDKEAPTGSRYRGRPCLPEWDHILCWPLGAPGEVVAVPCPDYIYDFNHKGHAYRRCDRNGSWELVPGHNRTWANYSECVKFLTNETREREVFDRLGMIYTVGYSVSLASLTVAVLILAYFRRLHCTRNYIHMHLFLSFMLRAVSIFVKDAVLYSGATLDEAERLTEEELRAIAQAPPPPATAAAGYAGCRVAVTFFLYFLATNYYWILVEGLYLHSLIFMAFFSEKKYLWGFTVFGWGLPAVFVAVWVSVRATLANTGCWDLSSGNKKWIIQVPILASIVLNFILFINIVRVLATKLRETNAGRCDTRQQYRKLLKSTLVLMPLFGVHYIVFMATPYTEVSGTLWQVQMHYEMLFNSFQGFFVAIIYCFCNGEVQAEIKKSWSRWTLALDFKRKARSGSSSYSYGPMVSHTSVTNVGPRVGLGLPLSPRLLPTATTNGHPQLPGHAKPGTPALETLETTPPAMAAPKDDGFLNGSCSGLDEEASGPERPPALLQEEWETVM
Protocol: cAMP signaling was assessed in the HEK293-derived or SaOS2-derived cell lines stably expressing the luciferase-based GloSensor™ cAMP reporter (Hattersley et al., Paper presented at: Novel Signaling Mechanisms and Bone Cell Biology 2014; Binkowski et al., Methods in molecular biology. 756:263-271). HEK-293 cells were further transfected to stably express the hPTHR1, hPTHR1-H223R, or hPTHR1-T410P. The cells were seeded into 96-well white plates and were assayed 24 to 48 hours post-confluency. Assays were performed at room temperature in CO2-independent culture media (Life Technologies, Corp., Carlsbad, Calif.) containing 0.1% BSA (CIDB). The cells were pre-loaded with luciferin (0.5 mM in CIDB) for 15 minutes, then PTH peptides were added at varying concentrations. cAMP-dependent luminescence was measured at two-minute intervals using a PerkinElmer Envision plate reader. The time at which maximum luminescence (cps) observed with agonist alone, typically at 10-20 minutes after agonist addition, was used to obtain data from wells containing antagonist with or without agonist, to thus generate antagonist ligand dose-response curves. The resulting cps values were then plotted against ligand concentration using GraphPad Prism 7.0 software and a four-parameter logistics curve fitting equation, which yielded parameters of inhibitory potency (pIC50).
Pharmacological properties of the ligands were assessed in cells expressing the PTHR1 and the GloSensor™ cAMP reporter. The assays used GP-2.3 cells, derived from HEK293 cells by stable transfection with the hPTHR1 and GloSensor™, as well as SGS-72 cells, which are derived from the human osteosarcoma cell line, Saos-2, in which is endogenously expressed the hPTHR1, by stable transfection with GloSensor™. Binding of representative polypeptides to the PTHR1 was assessed in GP-2.3 cells by radioligand competition methods (FIGS. 1A and 1B, Table 3).
[…] concentration of antagonist that inhibited the maximum response to PTH(1-34)-induced in the absence of antagonist (at ˜40 minutes) is reported in units of -log M (pIC50), and the corresponding nanomolar value is shown below each pIC50 value. Data are means of the number of experiments indicated (n). The PTH(1-34)-induced maximum luminescence was ˜80,000 cps and the basal was ˜1,000 cps. TMR indicates Lys13 modified at epsilon amino function with TMR, P vs. inhibition by dW12,Y34-bPTH(7-34).

endogenous hPTHR1 = biological target: T2, endogenous hPTHR1 (Homo sapiens, UniProt Q03431); test: Antagonism of PTH(1-34)- and PTHrP(1-36)-induced cAMP response (GloSensor) in SGS-72 cells; assay type: cell-based; details: PTH(1-34) 0.3 nM
T2 construct: Saos-2, in which is endogenously expressed the hPTHR1; endogenous in cells
T2 sequence (Q03431 27-593): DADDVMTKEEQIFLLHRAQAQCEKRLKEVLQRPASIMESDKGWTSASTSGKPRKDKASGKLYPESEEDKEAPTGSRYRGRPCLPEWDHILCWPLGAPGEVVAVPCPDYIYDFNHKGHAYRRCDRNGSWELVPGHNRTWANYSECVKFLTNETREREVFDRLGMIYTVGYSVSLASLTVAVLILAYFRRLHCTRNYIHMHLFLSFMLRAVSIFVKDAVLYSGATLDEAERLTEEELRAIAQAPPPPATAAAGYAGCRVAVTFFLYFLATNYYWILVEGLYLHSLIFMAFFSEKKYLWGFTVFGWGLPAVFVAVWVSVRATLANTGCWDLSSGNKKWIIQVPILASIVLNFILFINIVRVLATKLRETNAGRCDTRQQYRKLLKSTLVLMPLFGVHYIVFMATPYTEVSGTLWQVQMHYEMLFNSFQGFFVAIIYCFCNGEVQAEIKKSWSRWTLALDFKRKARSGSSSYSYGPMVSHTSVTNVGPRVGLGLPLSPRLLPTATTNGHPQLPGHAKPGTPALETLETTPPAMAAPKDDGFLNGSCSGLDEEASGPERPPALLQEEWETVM
Protocol: cAMP signaling was assessed in the HEK293-derived or SaOS2-derived cell lines stably expressing the luciferase-based GloSensorTM cAMP reporter ([…] al., Paper presented at: Novel Signaling Mechanisms and Bone Cell Biology 2014; Binkowski et al., Methods in molecular biology. 756:263-271). HEK-293 cells were further transfected to stably express the hPTHR1, hPTHR1-H223R, or hPTHR1-T410P. The cells were seeded into 96-well white plates and were assayed 24 to 48 hours post-confluency. Assays were performed at room temperature in CO2-independent culture media (Life Technologies, Corp., Carlsbad, Calif.) containing 0.1% BSA (CIDB). The cells were pre-loaded with luciferin (0.5 mM in CIDB) for 15 minutes, then PTH peptides were added at varying concentrations. cAMP-dependent luminescence was measured at two-minute intervals using a PerkinElmer Envision plate reader. The time at which maximum luminescence (cps) observed with agonist alone, typically at 10-20 minutes after agonist addition, was used to obtain data from wells containing antagonist with or without agonist, to thus generate antagonist ligand dose-response curves. The resulting cps values were then plotted against ligand concentration using GraphPad Prism 7.0 software and a four-parameter logistics curve fitting equation, which yielded parameters of inhibitory potency (pIC50). Pharmacological properties of the ligands were assessed in cells expressing the PTHR1 and the GloSensorTM cAMP reporter. The assays used GP-2.3 cells, derived from HEK293 cells by stable transfection with the hPTHR1 and GloSensorTM, as well as SGS-72 cells, which are derived from the human osteosarcoma cell line, Saos-2, in which is endogenously expressed the hPTHR1, by stable transfection with GloSensorTM. Binding of representative polypeptides to the PTHR1 was assessed in GP-2.3 cells by radioligand competition methods (FIGS. 1A and 1B, Table 3). […] In Table 5, antagonist assays were performed in SGS-72 cells (SaOS2 cells with stable GloSensorTM cAMP reporter) at room temperature. […] The mean (±sem) concentration of antagonist that inhibited the maximum agonist-induced response observed in the absence of antagonist (at 40 minutes) is reported in units of -log M (pIC50), and the corresponding nanomolar value is shown below each pIC50 value. Data are means of the number of seven experiments. The PTH(1-34)-induced maximum luminescence was 500,000 cps and the basal was 5,000 cps. TMR indicates Lys13 modified at epsilon amino function with TMR. The data are illustrated in FIG. 7A. […] Date are means (±SEM) of the number of separate experiments indicated by n.

| PTH(1-34)-induced maximum luminescence (PTHR1; basal ~1,000 cps) | PTH(1-34)-induced maximum luminescence (endogenous hPTHR1; basal ~5,000 cps) | IC50 (PTHR1; inhibition of PTH(1-34)-induced maximum response, read-out: corresponding nanomolar value of pIC50 (Table 4) (converted)) [nM] | IC50 (endogenous hPTHR1; IC50 PTH(1-34) (Table 6, nanomolar value), antagonist pre-treatment 15 minutes) [nM] | Structure (SMILES) |
| --- | --- | --- | --- | --- |
| ~80,000 cps | ~500,000 cps |  |  | CC[C@H](C)[C@H](NC(=O)[C@H](CCC(=O)O)NC(=O)[C@H](CO)NC(=O)[C@@H](NC(=O)[C@@H](N)CO)C(C)C)C(=O)N[C@@H](CCC(N)=O)C(=O)N[C@@H](CC(C)C)C(=O)N[C@@H](CCSC)C(=O)N[C@@H](Cc1c[nH]cn1)C(=O)N[C@@H](CC(N)=O)C(=O)N[C@@H](CC(C)C)C(=O)NCC(=O)N[C@@H](CCCCN)C(=O)N[C@@H](Cc1c[nH]cn1)C(=O)N[C@@H](CC(C)C)C(=O)N[C@@H](CC(N)=O)C(=O)N[C@@H](CO)C(=O)N[C@@H](CCSC)C(=O)N[C@@H](CCC(=O)O)C(=O)N[C@@H](CCCNC(=N)N)C(=O)N[C@H](C(=O)N[C@@H](CCC(=O)O)C(=O)N[C@@H](Cc1c[nH]c2ccccc12)C(=O)N[C@@H](CC(C)C)C(=O)N[C@@H](CCCNC(=N)N)C(=O)N[C@@H](CCCCN)C(=O)N[C@@H](CCCCN)C(=O)N[C@@H](CC(C)C)C(=O)N[C@@H](CCC(N)=O)C(=O)N[C@@H](CC(=O)O)C(=O)N[C@H](C(=O)N[C@@H](Cc1c[nH]cn1)C(=O)N[C@@H](CC(N)=O)C(=O)N[C@@H](Cc1ccccc1)C(N)=O)C(C)C)C(C)C [compound 1923, PTH(1-34), reference compound] |
|  |  | 224 | 4.39 | CCCC[C@H](NC(=O)[C@H](CC(C)C)NC(=O)[C@H](CCC(N)=O)NC(=O)[C@@H](N)[C@@H](C)CC)C(=O)N[C@@H](Cc1c[nH]cn1)C(=O)N[C@@H](CCC(N)=O)C(=O)N[C@@H](CCCNC(=N)N)C(=O)N[C@H](Cc1c[nH]c2ccccc12)C(=O)N[C@@H](CCCCN)C(=O)N[C@@H](Cc1c[nH]c2ccccc12)C(=O)N[C@H](C(=O)N[C@@H](CCC(N)=O)C(=O)N[C@@H](CC(=O)O)C(=O)N[C@@H](C)C(=O)N[C@@H](CCCNC(=N)N)C(=O)N[C@@H](CCCNC(=N)N)C(=O)N[C@@H](CCCNC(=N)N)C(=O)N[C@@H](C)C(=O)N[C@@H](Cc1c[nH]c2ccccc12)C(=O)N[C@@H](CC(C)C)C(=O)N[C@@H](Cc1c[nH]cn1)C(=O)N[C@@H](CCCCN)C(=O)N[C@@H](CC(C)C)C(=O)N[C@H](C(=O)N[C@@H](C)C(=O)N[C@@H](CCC(=O)O)C(=O)N[C@H](C(=O)N[C@@H](Cc1c[nH]cn1)C(=O)N[C@H](C(=O)N[C@@H](C)C(=O)N[C@@H](CCC(=O)O)C(=O)N[C@H](C(=O)N[C@@H](CS)C(N)=O)[C@@H](C)CC)[C@@H](C)O)[C@@H](C)CC)[C@@H](C)CC)[C@@H](C)CC [compound 1974, Nle8, dW12, W23, C37-LA-PTH(5-37)] (H-IQL[Nle]HQR[dW]KWIQDARRRAWLHKLIAEIHTAEIC-NH2; N-terminus assumed) |
